Experimental data taken from US8450527B2, “Amine derivative compounds for treating ophthalmic diseases and disorders” (Acucela Inc., priority 2007, dated 2013).

The compounds below were run against T1, isomerase (Mus musculus, UniProt Q91ZQ5) (assay: In vivo murine isomerase assay (recovery of 11-cis-retinal after photobleaching)). Conditions: CD1 male mice, single oral dose 1 mg/kg, photobleaching 4 h post dosing.
T1 construct: The recovery of 11-cis-retinal after bleaching can be used to estimate the activity of isomerase in vivo; from tissue; host or cells: eye (RPE) of living CD-1 albino male mice
T1 sequence (Q91ZQ5 1-533): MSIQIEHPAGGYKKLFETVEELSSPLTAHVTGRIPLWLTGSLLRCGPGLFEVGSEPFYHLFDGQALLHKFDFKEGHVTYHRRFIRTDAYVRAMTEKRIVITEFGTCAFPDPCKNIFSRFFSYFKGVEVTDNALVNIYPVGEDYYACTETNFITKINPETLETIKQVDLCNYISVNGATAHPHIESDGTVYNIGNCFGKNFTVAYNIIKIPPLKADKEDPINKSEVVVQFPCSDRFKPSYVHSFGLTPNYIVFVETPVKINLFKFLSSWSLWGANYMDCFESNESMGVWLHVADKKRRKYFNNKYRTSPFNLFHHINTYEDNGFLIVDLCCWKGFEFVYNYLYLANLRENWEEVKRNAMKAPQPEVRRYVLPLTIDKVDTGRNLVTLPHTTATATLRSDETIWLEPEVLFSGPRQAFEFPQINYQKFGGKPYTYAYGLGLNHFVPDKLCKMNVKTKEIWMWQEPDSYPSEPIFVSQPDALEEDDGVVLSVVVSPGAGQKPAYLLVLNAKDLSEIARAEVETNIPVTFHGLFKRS
Design: species or system CD-1 (albino) male mice
Method: The capability of amine derivative compounds to inhibit isomerase was determined by an in vivo murine isomerase assay. Brief exposure of the eye to intense light (“photobleaching” of the visual pigment or simply “bleaching”) is known to photo-isomerize almost all 11-cis-retinal in the retina. The recovery of 11-cis-retinal after bleaching can be used to estimate the activity of isomerase in vivo.
Delayed recovery, as represented by lower 11-cis-retinal oxime levels, indicates inhibition of isomerization reaction. Procedures were performed essentially as described by Golczak et al., Proc. Natl. Acad. Sci. USA 102:8162-67 (2005). See also Deigner et al., Science, 244: 968-71 (1989); Gollapalli et al., Biochim Biophys Acta. 1651: 93-101 (2003); Parish, et al., Proc. Natl. Acad. Sci. USA, 14609-13 (1998); Radu, et al., Proc Natl Acad Sci USA 101: 5928-33 (2004).
[…] Mice were orally gavaged with the several of the amine derivative compounds described herein. After 1-48 hours in the dark, the mice were exposed to photobleaching of 5,000 lux of white light for 10 minutes. The mice were allowed to recover 2 hours in the dark. The animals were then sacrificed by carbon dioxide inhalation. Retinoids were extracted from the eye and the regeneration of 11-cis-retinal was assessed at various time intervals.
All steps were performed in darkness with minimal redlight illumination (low light darkroom lights and redfiltered flashlights for spot illumination as needed) (see, e.g., Maeda et al., J. Neurochem 85:944-956, 2003; Van Hooser et al., J Biol Chem 277:19173-82, 2002). After the mice were sacrificed, the eyes were immediately removed and placed in liquid nitrogen for storage.
The eyes were placed in 500 μL of bis-tris propane buffer (10 mM, pH ˜7.3) and 20 μL of 0.8M hydroxylamine (pH˜7.3). The eyes were cut up into small pieces with small iris scissors and then thoroughly homogenized at 30000 rpm with a mechanical homogenizer (Polytron PT 1300 D) in the tube until no visible tissue remained. 500 μL of methanol and 500 μL of heptane were added to each tube. The tubes were attached to a vortexer so that the contents were mixed thoroughly for 15 minutes in room temperature. The organic phase was separated from the aqueous phase by centrifugation for 10 min at 13K rpm, 4° C. 240 μL of the solution from the top layer (organic phase) was removed and transferred to clean 300 μl glass inserts in HPLC vials using glass pipette and the vials were crimped shut tightly.
The samples were analyzed on an Agilent 1100 HPLC system with normal phase column: SILICA (Beckman Coutlier, dp 5 μm, […]). The running method has a flow rate of 1.5 ml/min; solvent components are 15% solvent 1 (1% isopropanol in ethyl acetate), and 85% solvent 2 (100% hexanes). Loading volume for each sample is 100 μl; detection wavelength is 360 nm. The area under the curve for 11-cis retinal oxime was calculated by Agilent Chemstation software and was recorded manually. Data processing was performed using Prizm software.
Positive control mice (no compound administered) were sacrificed fully dark-adapted and the eye retinoids analyzed. Light (bleached) control mice (no compound administered) were sacrificed and retinoids isolated and analyzed immediately after light treatment. The animals were orally gavaged with 1 mg/kg compound, then “photo-bleached” (5000 Lux white light for 10 minutes) at 4, 24 and 48 hours after dosing, and returned to darkness to allow recovery of the 11-cis-retinal content of the eyes. Mice were sacrificed 2 hours after bleaching, eyes were enucleated, and retinoid content was analyzed by HPLC.
A dose response in vivo isomerase inhibition study was performed with several of the amine derivative compounds described herein. Six-week old dark-adapted CD-1 (albino) male mice were orally gavaged with 0.03, 0.1, 0.3, 1 and 3 mg/kg of compound in sterile water as solution, and photobleached 4 hours after dosing. […]

| % Inhibition 1 mg/kg 4 h [%] | Structure (SMILES) |
| --- | --- |
| 79 | CCCC(C)(O)CCc1cccc(C(O)CCN)c1 (stereo not shown) [Example 109, 1-(3-(3-amino-1-hydroxypropyl)phenyl)-3-methylhexan-3-ol] |
| 61 | NCCC(O)c1cccc(CCC2CCCCO2)c1 (stereo not shown) [Example 110, 3-amino-1-(3-(2-(tetrahydro-2H-pyran-2-yl)ethyl)phenyl)propan-1-ol] |
| 87 | CCC(O)(CC)CCc1cccc(C(O)CCN)c1 (stereo not shown) [Example 113, 1-(3-(3-amino-1-hydroxypropyl)phenyl)-3-ethylpentan-3-ol] |
| 6 | CCCC(O)(CCC)CCc1cccc(SCCN)c1 [Example 134, 4-(3-(2-aminoethylthio)phenethyl)heptan-4-ol] |
| 87 | CCCC(O)(CCC)CCc1cc(C(O)CCN)ccc1F (stereo not shown) [Example 140, 4-(5-(3-amino-1-hydroxypropyl)-2-fluorophenethyl)heptan-4-ol] |
| 0 | NCC#Cc1cccc(CS(=O)(=O)C2CCCCC2)c1 [Example 157, 3-(3-(cyclohexylsulfonylmethyl)phenyl)prop-2-yn-1-amine] |
| 0 | NCCOc1cccc(C(=O)NC2CCCCC2)c1 [Example 164, 3-(2-aminoethoxy)-N-cyclohexylbenzamide] |
| 9 | NCCCc1cccc(CCC2CCCCC2O)c1 (stereo not shown) [Example 187, 2-(3-(3-aminopropyl)phenethyl)cyclohexanol] |

Second part, the compound before the results:

| Structure (SMILES) | % Inhibition 1 mg/kg 4 h [%] |
| --- | --- |
| NCCC(O)c1cccc(CCCCCCO)c1 (stereo not shown) [Example 59, 6-(3-(3-amino-1-hydroxypropyl)phenyl)hexan-1-ol] | 14 |
| CCCC(O)(CCC)CCc1cccc([C@@H](O)CCN)c1 [Example 70, (S)-4-(3-(3-amino-1-hydroxypropyl)phenethyl)heptan-4-ol] | 100 |
| CCCC(O)(CCC)CCc1cccc([C@H](O)CCN)c1 [Example 71, (R)-4-(3-(3-Amino-1-hydroxypropyl)phenethyl)heptan-4-ol] | 67 |
| NCCC(O)c1cccc(CCc2ccccc2)c1 (stereo not shown) [Example 85, 3-amino-1-(3-phenethylphenyl)propan-1-ol] | 70 |
| CC(C)CCCc1cccc(C(O)CCN)c1 (stereo not shown) [Example 90, 3-amino-1-(3-(4-methylpentyl)phenyl)propan-1-ol] | 84 |
| NCCOc1cccc(CCC2CCCCC2O)c1 (stereo not shown) [Example 99, 2-(3-(2-aminoethoxy)phenethyl)cyclohexanol] | 22 |
| NCCC(O)c1cccc(CCC2CCCCC2O)c1 (stereo not shown) [Example 100, 2-(3-(3-amino-1-hydroxypropyl)phenethyl)cyclohexanol] | 9 |

The compounds below were run against T2, visual cycle isomerase (Bos taurus, UniProt Q28175) (assay: In vitro isomerase inhibition assay, bovine RPE microsome membranes). Conditions: inhibition of 11-cis retinol formation; values given as ranges.
T2 construct: Bovine Retinal Pigment Epithelium (RPE) microsome membranes were the source of a visual cycle isomerase; from tissue; host or cells: bovine retinal pigment epithelium microsome membranes; CRALBP made in E. coli
T2 sequence (Q28175 2-533 limits assumed): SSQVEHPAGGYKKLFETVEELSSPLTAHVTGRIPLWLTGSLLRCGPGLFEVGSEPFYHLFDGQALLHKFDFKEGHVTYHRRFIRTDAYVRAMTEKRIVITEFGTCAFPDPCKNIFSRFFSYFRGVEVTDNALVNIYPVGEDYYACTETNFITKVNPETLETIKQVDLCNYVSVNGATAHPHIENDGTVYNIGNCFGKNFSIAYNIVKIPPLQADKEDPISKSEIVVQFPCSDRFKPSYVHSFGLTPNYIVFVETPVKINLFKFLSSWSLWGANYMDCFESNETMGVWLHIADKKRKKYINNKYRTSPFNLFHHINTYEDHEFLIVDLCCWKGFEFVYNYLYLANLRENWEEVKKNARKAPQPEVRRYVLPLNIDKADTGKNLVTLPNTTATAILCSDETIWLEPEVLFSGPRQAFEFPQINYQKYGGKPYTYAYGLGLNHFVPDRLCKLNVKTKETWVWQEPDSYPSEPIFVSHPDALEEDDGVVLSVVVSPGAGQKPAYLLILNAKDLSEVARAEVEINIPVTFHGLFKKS
Type: biochemical
Method: The capability of amine derivative compounds to inhibit the activity of a visual cycle isomerase was determined
Isomerase inhibition reactions were performed essentially as described (Stecher et al., J. Biol. Chem. 274:8577-85 (1999); see also Golczak et al., Proc. Natl. Acad. Sci. USA 102:8162-67 (2005)). Bovine Retinal Pigment Epithelium (RPE) microsome membranes were the source of a visual cycle isomerase.
Bovine RPE microsome membrane extracts were prepared according to methods described (Golczak et al., Proc. Natl. Acad. Sci. USA 102:8162-67 (2005)) and stored at −80° C. Crude RPE microsome extracts were thawed in a 37° C. water bath, and then immediately placed on ice. 50 ml crude RPE microsomes were placed into a 50 ml Teflon-glass homogenizer (Fisher Scientific, catalog no. 0841416M) on ice, powered by a hand-held DeWalt drill, and homogenized ten times upand down on ice under maximum speed. This process was repeated until the crude RPE microsome solution was homogenized. The homogenate was then subjected to centrifugation (50.2 Ti rotor (Beckman, Fullerton, Calif.), 13,000 RPM; 15360 Rcf) for 15 minutes at 4° C. The supernatant was collected and subjected to centrifugation at 42,000 RPM (160,000 Rcf; 50.2 Ti rotor) for 1 hour at 4° C. The supernatant was removed, and the pellets were suspended in 12 ml (final volume) cold 10 mM MOPS buffer, pH 7.0. The resuspended RPE membranes in 5 ml aliquots were homogenized in a glass-to-glass homogenizer (Fisher Scientific, catalog no.K885500-0021) to high homogeneity. Protein concentration was quantified using the BCA protein assay according to the manufacturer's protocol (Pierce, Rockford, Ill.). The homogenized RPE preparations were stored at −80° C.
Recombinant human apo cellular retinaldehyde-binding protein (CRALBP) was cloned and expressed according to standard methods in the molecular biology art (see Crabb et al., Protein Science 7:746-57 (1998); Crabb et al., J. Biol. Chem. 263:18688-92 (1988)). Briefly, total RNA was prepared from confluent ARPE^19 cells (American Type Culture Collection, Manassas, Va.), cDNA was synthesized using an oligo(dT)12-18 primer, and then DNA encoding CRALBP was amplified by two sequential polymerase chain reactions (see Crabb et al., J. Biol. Chem. 263:18688-92 (1988); Intres, et al., J. Biol. Chem. 269:25411-18 (1994); GenBank Accession No. L34219.1). The PCR product was sub-cloned into pTrcHis2-TOPO TA vector according to the manufacturer's protocol (Invitrogen Inc., Carlsbad, Calif.; catalog no. K4400-01), and then the sequence was confirmed according to standard nucleotide sequencing techniques. Recombinant 6×His-tagged human CRALBP was expressed in One Shot TOP 10 chemically competent E. coli cells (Invitrogen), and the recombinant polypeptide was isolated from E. coli cell lysates by nickel affinity chromatography using nickel (Ni) Sepharose XK16-20 columns for HPLC (Amersham Bioscience, Pittsburgh, Pa.; catalog no.17-5268-O2). The purified 6×His-tagged human CRALBP was dialyzed against 10 mM bis-tris-Propane (BTP) and analyzed by SDS-PAGE. The molecular weight of the recombinant human CRALBP was approximately 39 kDal.
Amine derivative compounds and control compounds were reconstituted in ethanol to 0.1 M. Ten-fold serial dilutions (10^−2, 10^−3, 10^−4, 10^−5, 10^−6 M) in ethanol of each compound were prepared for analysis in the isomerase assay.
The isomerase assay was performed in 10 mM bis-tris-propane (BTP) buffer, pH 7.5, 0.5% BSA (diluted in BTP buffer), 1 mM sodium pyrophosphate, 20 μM all-trans retinol (in ethanol), and 6 μM apo-CRALBP. The test compounds (2 μl) (final 1/15 dilution of serial dilution stocks) were added to the above reaction mixture to which RPE microsomes were added. The same volume of ethanol was added to the control reaction (absence of test compound). Bovine RPE microsomes (9 μl) (see above) were then added, and the mixtures transferred to 37° C. to initiate the reaction (total volume=150 μl). […]

| IC50 [µM] | Structure (SMILES) |
| --- | --- |
| 1 to 10 | Cc1cccc(C)c1CCc1cccc(CCCN)c1 [Example 1, 3-(3-(2,6-dimethylphenethyl)phenyl)propan-1-amine] |
